Test results reported in article PMC7194013 (Nature plants, 2020).

Experiments:
Experiment in all cases: in vitro enzyme assay with purified recombinant CPS and GGPP, GC-FID
Assay type in all cases: biochemical
[1] = target: T1, AtCPS (ent-copalyl diphosphate synthase, GA1) (Arabidopsis thaliana, UniProt Q38802)
T1 sequence (Q38802 85-802): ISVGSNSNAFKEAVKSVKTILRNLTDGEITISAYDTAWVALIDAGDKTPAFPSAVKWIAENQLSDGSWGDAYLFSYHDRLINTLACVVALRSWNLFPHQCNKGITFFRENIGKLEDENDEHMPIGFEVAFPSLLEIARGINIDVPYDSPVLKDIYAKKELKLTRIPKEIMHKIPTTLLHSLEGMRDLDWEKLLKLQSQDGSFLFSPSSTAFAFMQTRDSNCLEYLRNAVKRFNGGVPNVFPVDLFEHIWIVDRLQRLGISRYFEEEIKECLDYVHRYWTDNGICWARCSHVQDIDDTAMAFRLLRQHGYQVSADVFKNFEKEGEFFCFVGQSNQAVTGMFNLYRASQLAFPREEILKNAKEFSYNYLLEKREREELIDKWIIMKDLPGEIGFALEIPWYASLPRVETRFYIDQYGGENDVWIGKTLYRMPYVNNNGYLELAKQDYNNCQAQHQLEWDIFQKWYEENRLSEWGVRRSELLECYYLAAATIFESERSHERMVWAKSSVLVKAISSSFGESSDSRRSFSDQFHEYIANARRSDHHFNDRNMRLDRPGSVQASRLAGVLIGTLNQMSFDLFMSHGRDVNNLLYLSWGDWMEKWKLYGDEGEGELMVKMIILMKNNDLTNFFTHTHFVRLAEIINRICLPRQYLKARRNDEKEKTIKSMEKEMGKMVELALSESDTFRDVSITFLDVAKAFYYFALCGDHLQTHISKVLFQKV

[2] = target: T2, ZmCPS2 (An2) (Zea mays, UniProt A0A1D6K6U5)
T2 sequence (A0A1D6K6U5 71-825): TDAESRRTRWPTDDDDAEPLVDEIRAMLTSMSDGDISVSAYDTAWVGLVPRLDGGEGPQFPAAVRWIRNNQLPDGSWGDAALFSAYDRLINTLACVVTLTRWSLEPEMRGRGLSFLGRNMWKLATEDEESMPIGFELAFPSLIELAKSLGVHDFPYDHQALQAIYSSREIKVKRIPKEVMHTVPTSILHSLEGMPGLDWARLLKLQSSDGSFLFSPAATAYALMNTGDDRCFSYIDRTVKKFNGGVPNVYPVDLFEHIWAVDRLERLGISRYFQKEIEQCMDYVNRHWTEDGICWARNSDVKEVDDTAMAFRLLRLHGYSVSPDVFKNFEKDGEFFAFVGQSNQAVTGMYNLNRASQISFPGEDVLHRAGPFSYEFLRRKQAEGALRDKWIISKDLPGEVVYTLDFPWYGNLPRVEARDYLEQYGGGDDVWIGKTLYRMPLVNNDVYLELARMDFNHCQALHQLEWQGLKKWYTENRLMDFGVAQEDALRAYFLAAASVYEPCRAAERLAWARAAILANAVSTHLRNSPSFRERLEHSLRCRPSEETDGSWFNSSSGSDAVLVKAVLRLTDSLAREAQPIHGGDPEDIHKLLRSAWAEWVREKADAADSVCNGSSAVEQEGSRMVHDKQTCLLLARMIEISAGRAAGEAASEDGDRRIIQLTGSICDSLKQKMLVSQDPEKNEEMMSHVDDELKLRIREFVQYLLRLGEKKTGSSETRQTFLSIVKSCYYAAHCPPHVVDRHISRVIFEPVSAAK

[3] = target: T3, ZmCPS1 (An1) (Zea mays, UniProt Q41771)
T3 sequence (Q41771 64-824): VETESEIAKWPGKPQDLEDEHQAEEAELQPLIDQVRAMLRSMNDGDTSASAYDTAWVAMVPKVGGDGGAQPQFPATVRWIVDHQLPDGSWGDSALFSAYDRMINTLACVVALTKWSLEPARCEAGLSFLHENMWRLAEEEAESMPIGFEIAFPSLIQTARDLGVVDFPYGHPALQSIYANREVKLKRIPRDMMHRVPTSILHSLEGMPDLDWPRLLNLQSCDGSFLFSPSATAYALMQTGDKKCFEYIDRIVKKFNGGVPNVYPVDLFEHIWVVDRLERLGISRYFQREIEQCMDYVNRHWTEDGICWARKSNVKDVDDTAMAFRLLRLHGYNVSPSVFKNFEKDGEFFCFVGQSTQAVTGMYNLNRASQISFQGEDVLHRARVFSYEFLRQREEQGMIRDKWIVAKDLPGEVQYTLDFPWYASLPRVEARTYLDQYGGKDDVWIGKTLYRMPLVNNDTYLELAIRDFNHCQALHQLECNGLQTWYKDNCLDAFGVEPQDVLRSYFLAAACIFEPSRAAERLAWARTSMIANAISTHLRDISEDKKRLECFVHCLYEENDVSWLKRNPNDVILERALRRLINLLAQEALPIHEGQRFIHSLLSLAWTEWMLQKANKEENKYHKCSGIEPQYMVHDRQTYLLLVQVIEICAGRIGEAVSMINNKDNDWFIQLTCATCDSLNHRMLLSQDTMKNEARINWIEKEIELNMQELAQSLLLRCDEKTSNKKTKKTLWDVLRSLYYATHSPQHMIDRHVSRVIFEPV

C[N+]1(C)CCCCC1 [DPC, 1,1-dimethyl-piperidinium chloride] gave an IC50 [1] of 30 µM, an IC50 [2] of 4000 µM and an IC50 [3] of 2000 µM.
